Measurements as given in ChEMBL document CHEMBL1154276, “Discovery of highly potent novel antifungal azoles by structure-based rational design” (2009).
≈ marks a conversion by molar mass, not a printed value.

Legend:
Type in all cases: functional
Nannizzia gypsea = experiment: Antifungal activity against Microsporum gypseum by serial dilution method […]
Candida albicans = experiment: Antifungal activity against Candida albicans by serial dilution method after 24 hrs
Aspergillus fumigatus = experiment: Antifungal activity against Aspergillus fumigatus by serial dilution method after 7 days; details: 168 h
Cryptococcus neoformans [1] = experiment: Antifungal activity against Cryptococcus neoformans by serial dilution method after 72 hrs
Candida tropicalis = experiment: Antifungal activity against Candida tropicalis by serial dilution method after 24 hrs
Trichophyton rubrum = experiment: Antifungal activity against Trichophyton rubrum by serial dilution method after 7 days; details: 168 h
Cryptococcus neoformans [2] = experiment: Selectivity ratio of compound MIC80 to voriconazole MIC80 for Cryptococcus neoformans

CN(CCCCOc1ccccc1Br)CC(O)(Cn1cncn1)c1ccc(F)cc1F (centres undefined)
MIC80 (Nannizzia gypsea): 0.0625 µg/mL (≈ 0.126 µM)
MIC80 (Candida albicans): 0.0156 µg/mL (≈ 0.0315 µM)
MIC80 (Aspergillus fumigatus): > 64 µg/mL
MIC80 (Cryptococcus neoformans [1]): 0.004 µg/mL (≈ 0.00807 µM)
MIC80 (Candida tropicalis): 0.0156 µg/mL (≈ 0.0315 µM)
MIC80 (Trichophyton rubrum): 0.0625 µg/mL (≈ 0.126 µM)
Selectivity ratio (Cryptococcus neoformans [2]): 4

Cc1ccc(OCCCCN(C)CC(O)(Cn2cncn2)c2ccc(F)cc2F)cc1 (centres undefined)
MIC80 (Nannizzia gypsea): 0.0625 µg/mL (≈ 0.145 µM)
MIC80 (Candida albicans): 0.0156 µg/mL (≈ 0.0362 µM)
MIC80 (Aspergillus fumigatus): 16 µg/mL (≈ 37.2 µM)
MIC80 (Cryptococcus neoformans [1]): 0.0625 µg/mL (≈ 0.145 µM)
MIC80 (Candida tropicalis): 0.004 µg/mL (≈ 0.00929 µM)
MIC80 (Trichophyton rubrum): 0.0156 µg/mL (≈ 0.0362 µM)

Cc1ccccc1OCCCCN(C)CC(O)(Cn1cncn1)c1ccc(F)cc1F (centres undefined)
MIC80 (Nannizzia gypsea): 0.0625 µg/mL (≈ 0.145 µM)
MIC80 (Candida albicans): 0.0625 µg/mL (≈ 0.145 µM)
MIC80 (Aspergillus fumigatus): > 64 µg/mL
MIC80 (Cryptococcus neoformans [1]): 0.0156 µg/mL (≈ 0.0362 µM)
MIC80 (Candida tropicalis): 0.0156 µg/mL (≈ 0.0362 µM)
MIC80 (Trichophyton rubrum): 0.0625 µg/mL (≈ 0.145 µM)

CN(CCCCOc1ccc(F)cc1)CC(O)(Cn1cncn1)c1ccc(F)cc1F (centres undefined)
MIC80 (Nannizzia gypsea): 0.0625 µg/mL (≈ 0.144 µM)
MIC80 (Candida albicans): 0.0156 µg/mL (≈ 0.0359 µM)
MIC80 (Aspergillus fumigatus): 16 µg/mL (≈ 36.8 µM)
MIC80 (Cryptococcus neoformans [1]): 0.0625 µg/mL (≈ 0.144 µM)
MIC80 (Candida tropicalis): 0.004 µg/mL (≈ 0.00921 µM)
MIC80 (Trichophyton rubrum): 0.0156 µg/mL (≈ 0.0359 µM)

CN(CCCCOc1ccc(Cl)cc1)CC(O)(Cn1cncn1)c1ccc(F)cc1F (centres undefined)
MIC80 (Nannizzia gypsea): 0.0156 µg/mL (≈ 0.0346 µM)
MIC80 (Candida albicans): 0.001 µg/mL (≈ 0.00222 µM)
MIC80 (Aspergillus fumigatus): 4 µg/mL (≈ 8.87 µM)
MIC80 (Cryptococcus neoformans [1]): 0.0156 µg/mL (≈ 0.0346 µM)
MIC80 (Candida tropicalis): 0.001 µg/mL (≈ 0.00222 µM)
MIC80 (Trichophyton rubrum): 0.0625 µg/mL (≈ 0.139 µM)

CN(CCCCOc1ccccc1Cl)CC(O)(Cn1cncn1)c1ccc(F)cc1F (centres undefined)
MIC80 (Nannizzia gypsea): 0.0625 µg/mL (≈ 0.139 µM)
MIC80 (Candida albicans): 0.0156 µg/mL (≈ 0.0346 µM)
MIC80 (Aspergillus fumigatus): > 64 µg/mL
MIC80 (Cryptococcus neoformans [1]): 0.0156 µg/mL (≈ 0.0346 µM)
MIC80 (Candida tropicalis): 0.0156 µg/mL (≈ 0.0346 µM)
MIC80 (Trichophyton rubrum): 0.0625 µg/mL (≈ 0.139 µM)

CN(CCCCOc1ccc(C(C)(C)C)cc1)CC(O)(Cn1cncn1)c1ccc(F)cc1F (centres undefined)
MIC80 (Nannizzia gypsea): 0.0625 µg/mL (≈ 0.132 µM)
MIC80 (Candida albicans): 0.0625 µg/mL (≈ 0.132 µM)
MIC80 (Aspergillus fumigatus): > 64 µg/mL
MIC80 (Cryptococcus neoformans [1]): 0.25 µg/mL (≈ 0.529 µM)
MIC80 (Candida tropicalis): 0.0625 µg/mL (≈ 0.132 µM)
MIC80 (Trichophyton rubrum): 0.0625 µg/mL (≈ 0.132 µM)

Cc1cccc(OCCCCN(C)CC(O)(Cn2cncn2)c2ccc(F)cc2F)c1 (centres undefined)
MIC80 (Nannizzia gypsea): 0.0625 µg/mL (≈ 0.145 µM)
MIC80 (Candida albicans): 0.0156 µg/mL (≈ 0.0362 µM)
MIC80 (Aspergillus fumigatus): 64 µg/mL (≈ 149 µM)
MIC80 (Cryptococcus neoformans [1]): 0.0625 µg/mL (≈ 0.145 µM)
MIC80 (Candida tropicalis): 0.0156 µg/mL (≈ 0.0362 µM)
MIC80 (Trichophyton rubrum): 0.0625 µg/mL (≈ 0.145 µM)

CN(CCCCOc1cccc(N)c1)CC(O)(Cn1cncn1)c1ccc(F)cc1F (centres undefined)
MIC80 (Nannizzia gypsea): 0.0625 µg/mL (≈ 0.145 µM)
MIC80 (Candida albicans): 0.0156 µg/mL (≈ 0.0362 µM)
MIC80 (Aspergillus fumigatus): > 64 µg/mL
MIC80 (Cryptococcus neoformans [1]): 0.25 µg/mL (≈ 0.579 µM)
MIC80 (Candida tropicalis): 0.0156 µg/mL (≈ 0.0362 µM)
MIC80 (Trichophyton rubrum): 0.25 µg/mL (≈ 0.579 µM)

CN(CCCCOc1ccc(OCc2ccccc2)cc1)CC(O)(Cn1cncn1)c1ccc(F)cc1F (centres undefined)
MIC80 (Nannizzia gypsea): 0.0156 µg/mL (≈ 0.0299 µM)
MIC80 (Candida albicans): 0.0156 µg/mL (≈ 0.0299 µM)
MIC80 (Aspergillus fumigatus): 32 µg/mL (≈ 61.2 µM)
MIC80 (Cryptococcus neoformans [1]): 0.0156 µg/mL (≈ 0.0299 µM)
MIC80 (Candida tropicalis): 0.0156 µg/mL (≈ 0.0299 µM)
MIC80 (Trichophyton rubrum): 0.0625 µg/mL (≈ 0.12 µM)

COc1ccc(OCCCCN(C)CC(O)(Cn2cncn2)c2ccc(F)cc2F)cc1 (centres undefined)
MIC80 (Nannizzia gypsea): 0.0625 µg/mL (≈ 0.14 µM)
MIC80 (Candida albicans): 0.0156 µg/mL (≈ 0.0349 µM)
MIC80 (Aspergillus fumigatus): 16 µg/mL (≈ 35.8 µM)
MIC80 (Cryptococcus neoformans [1]): 0.0625 µg/mL (≈ 0.14 µM)
MIC80 (Candida tropicalis): 0.004 µg/mL (≈ 0.00896 µM)
MIC80 (Trichophyton rubrum): 0.0156 µg/mL (≈ 0.0349 µM)

CN(CCCCOc1ccc(Br)cc1)CC(O)(Cn1cncn1)c1ccc(F)cc1F (centres undefined)
MIC80 (Nannizzia gypsea): 0.0156 µg/mL (≈ 0.0315 µM)
MIC80 (Candida albicans): 0.001 µg/mL (≈ 0.00202 µM)
MIC80 (Aspergillus fumigatus): 4 µg/mL (≈ 8.07 µM)
MIC80 (Cryptococcus neoformans [1]): 0.004 µg/mL (≈ 0.00807 µM)
MIC80 (Candida tropicalis): 0.001 µg/mL (≈ 0.00202 µM)
MIC80 (Trichophyton rubrum): 0.0156 µg/mL (≈ 0.0315 µM)
Selectivity ratio (Cryptococcus neoformans [2]): 4

CN(CCCCOc1cccc(Br)c1)CC(O)(Cn1cncn1)c1ccc(F)cc1F (centres undefined)
MIC80 (Nannizzia gypsea): 0.0156 µg/mL (≈ 0.0315 µM)
MIC80 (Candida albicans): 0.0625 µg/mL (≈ 0.126 µM)
MIC80 (Aspergillus fumigatus): 64 µg/mL (≈ 129 µM)
MIC80 (Cryptococcus neoformans [1]): 0.0625 µg/mL (≈ 0.126 µM)
MIC80 (Candida tropicalis): 0.001 µg/mL (≈ 0.00202 µM)
MIC80 (Trichophyton rubrum): 0.0625 µg/mL (≈ 0.126 µM)

CN(CCCCOc1cccc([N+](=O)[O-])c1)CC(O)(Cn1cncn1)c1ccc(F)cc1F (centres undefined)
MIC80 (Nannizzia gypsea): 0.0625 µg/mL (≈ 0.135 µM)
MIC80 (Candida albicans): 0.0156 µg/mL (≈ 0.0338 µM)
MIC80 (Aspergillus fumigatus): 64 µg/mL (≈ 139 µM)
MIC80 (Cryptococcus neoformans [1]): 0.0625 µg/mL (≈ 0.135 µM)
MIC80 (Candida tropicalis): 0.004 µg/mL (≈ 0.00867 µM)
MIC80 (Trichophyton rubrum): 0.0625 µg/mL (≈ 0.135 µM)

CN(CCCCOc1ccccc1[N+](=O)[O-])CC(O)(Cn1cncn1)c1ccc(F)cc1F (centres undefined)
MIC80 (Nannizzia gypsea): 0.0625 µg/mL (≈ 0.135 µM)
MIC80 (Candida albicans): 0.0625 µg/mL (≈ 0.135 µM)
MIC80 (Aspergillus fumigatus): > 64 µg/mL
MIC80 (Cryptococcus neoformans [1]): 0.25 µg/mL (≈ 0.542 µM)
MIC80 (Candida tropicalis): 0.0625 µg/mL (≈ 0.135 µM)
MIC80 (Trichophyton rubrum): 0.0625 µg/mL (≈ 0.135 µM)

CN(CCCCOc1ccc(N)cc1)CC(O)(Cn1cncn1)c1ccc(F)cc1F (centres undefined)
MIC80 (Nannizzia gypsea): 0.25 µg/mL (≈ 0.579 µM)
MIC80 (Candida albicans): 0.0625 µg/mL (≈ 0.145 µM)
MIC80 (Aspergillus fumigatus): > 64 µg/mL
MIC80 (Cryptococcus neoformans [1]): 0.25 µg/mL (≈ 0.579 µM)
MIC80 (Candida tropicalis): 0.0156 µg/mL (≈ 0.0362 µM)
MIC80 (Trichophyton rubrum): 1 µg/mL (≈ 2.32 µM)

CN(CCCCOc1ccc(OC(F)(F)F)cc1)CC(O)(Cn1cncn1)c1ccc(F)cc1F (centres undefined)
MIC80 (Nannizzia gypsea): 0.0625 µg/mL (≈ 0.125 µM)
MIC80 (Candida albicans): 0.0156 µg/mL (≈ 0.0312 µM)
MIC80 (Aspergillus fumigatus): > 64 µg/mL
MIC80 (Cryptococcus neoformans [1]): 0.0625 µg/mL (≈ 0.125 µM)
MIC80 (Candida tropicalis): 0.004 µg/mL (≈ 0.00799 µM)
MIC80 (Trichophyton rubrum): 0.0156 µg/mL (≈ 0.0312 µM)

CN(CCCCOc1ccc([N+](=O)[O-])cc1)CC(O)(Cn1cncn1)c1ccc(F)cc1F (centres undefined)
MIC80 (Nannizzia gypsea): 0.0156 µg/mL (≈ 0.0338 µM)
MIC80 (Candida albicans): 0.001 µg/mL (≈ 0.00217 µM)
MIC80 (Aspergillus fumigatus): 64 µg/mL (≈ 139 µM)
MIC80 (Cryptococcus neoformans [1]): 0.0156 µg/mL (≈ 0.0338 µM)
MIC80 (Candida tropicalis): 0.004 µg/mL (≈ 0.00867 µM)
MIC80 (Trichophyton rubrum): 0.0625 µg/mL (≈ 0.135 µM)

CN(CCCCOc1ccccc1N)CC(O)(Cn1cncn1)c1ccc(F)cc1F (centres undefined)
MIC80 (Nannizzia gypsea): 0.25 µg/mL (≈ 0.579 µM)
MIC80 (Candida albicans): 0.0625 µg/mL (≈ 0.145 µM)
MIC80 (Aspergillus fumigatus): > 64 µg/mL
MIC80 (Cryptococcus neoformans [1]): 1 µg/mL (≈ 2.32 µM)
MIC80 (Candida tropicalis): 0.0156 µg/mL (≈ 0.0362 µM)
MIC80 (Trichophyton rubrum): 1 µg/mL (≈ 2.32 µM)

OC(Cn1cncn1)(Cn1cncn1)c1ccc(F)cc1F [FLUCONAZOLE]
MIC80 (Nannizzia gypsea): 1 µg/mL (≈ 3.27 µM)
MIC80 (Candida albicans): 0.25 µg/mL (≈ 0.816 µM)
MIC80 (Aspergillus fumigatus): > 64 µg/mL
MIC80 (Cryptococcus neoformans [1]): 1 µg/mL (≈ 3.27 µM)
MIC80 (Candida tropicalis): 1 µg/mL (≈ 3.27 µM)
MIC80 (Trichophyton rubrum): 0.25 µg/mL (≈ 0.816 µM)

CCC(C)n1ncn(-c2ccc(N3CCN(c4ccc(OCC5COC(Cn6cncn6)(c6ccc(Cl)cc6Cl)O5)cc4)CC3)cc2)c1=O (centres undefined) [ITRACONAZOLE]
MIC80 (Nannizzia gypsea): 0.125 µg/mL (≈ 0.177 µM)
MIC80 (Candida albicans): 0.125 µg/mL (≈ 0.177 µM)
MIC80 (Aspergillus fumigatus): 2 µg/mL (≈ 2.83 µM)
MIC80 (Cryptococcus neoformans [1]): 0.5 µg/mL (≈ 0.709 µM)
MIC80 (Candida tropicalis): 0.0156 µg/mL (≈ 0.0221 µM)
MIC80 (Trichophyton rubrum): 0.125 µg/mL (≈ 0.177 µM)

C[C@@H](c1ncncc1F)[C@](O)(Cn1cncn1)c1ccc(F)cc1F [VORICONAZOLE]
MIC80 (Nannizzia gypsea): 0.0156 µg/mL (≈ 0.0447 µM)
MIC80 (Candida albicans): 0.0156 µg/mL (≈ 0.0447 µM)
MIC80 (Aspergillus fumigatus): 0.25 µg/mL (≈ 0.716 µM)
MIC80 (Cryptococcus neoformans [1]): 0.0156 µg/mL (≈ 0.0447 µM)
MIC80 (Candida tropicalis): 0.001 µg/mL (≈ 0.00286 µM)
MIC80 (Trichophyton rubrum): 0.0156 µg/mL (≈ 0.0447 µM)
